Results as given in US8563741B2, “CDK inhibitors containing a zinc binding moiety” (Curis, Inc., priority 2007, dated 2013).

Key:
Format in all cases: biochemical
HDAC = HDAC fluorimetric assay kit (AK-500, Biomol), HeLa nuclear extract
Description: HDAC inhibitors were screened using an HDAC fluorimetric assay kit (AK-500, Biomol, Plymouth Meeting, Pa.). […] Each assay was setup as follows: Defrosted all kit components and kept on ice until use. Diluted HeLa nuclear extract 1:29 in Assay Buffer (50 mM Tris/Cl, pH 8.0, 137 mM NaCl, 2.7 mM KCl, 1 mM MgCl2). Prepared dilutions of Trichostatin A (TSA, positive control) and tested compounds in assay buffer (5× of final concentration). Diluted Fluor de LysTM Substrate in assay buffer to 100 uM (50 fold=2× final). Diluted Fluor de LysTM developer concentrate 20-fold (e.g. 50 μl plus 950 μl Assay Buffer) in cold assay buffer. Second, diluted the 0.2 mM Trichostatin A 100-fold in the 1× Developer (e.g. 10 μl in 1 ml; final Trichostatin A concentration in the 1× Developer=2 μM; final concentration after addition to HDAC/Substrate reaction=1 μM). Added Assay buffer, diluted trichostatin A or test inhibitor to appropriate wells of the microtiter plate. Added diluted HeLa extract or other HDAC sample to all wells except for negative controls. Allowed diluted Fluor de LysTM Substrate and the samples in the microtiter plate to equilibrate to assay temperature (e.g. 25 or 37° C. Initiated HDAC reactions by adding diluted substrate (25 μl) to each well and mixing thoroughly. Allowed HDAC reactions to proceed for 1 hour and then stopped them by addition of Fluor de LysTM Developer (50 μl). Incubated plate at room temperature (25° C.) for 10-15 min. Read samples in a microtiter-plate reading fluorimeter capable of excitation at a wavelength in the range 350-380 nm and detection of emitted light in the range 440-460 nm.

CDK2/cyclinE = molecular target: T1, CDK2/cyclinE (Homo sapiens, UniProt P24941); assay: CDK activity assay with p33 ATP, CDK2/cyclinE; conditions: 1 μM ATP
T1 construct: C-terminal 6His-tagged, recombinant full-length CDK2 (MW=34 kDa); 6His (C); made in house; host or cells: Sf21 cells (baculovirus)
Description: CDK2/cyclinE (Accession Number for CDK2; EMBL M68520, for cyclinE1; GenBank NM_001238):
C-terminal 6His-tagged, recombinant full-length CDK2 (MW=34 kDa) in complex with N-terminal GST-tagged, recombinant full-length cyclinE1 (MW=74 kDa) were expressed with baculovirus system in Sf21 cells. Recombinant proteins were purified using Ni2+/NTA agarose and the purity of recombinant protein complex was measured to be around 76% by SDS-PAGE and Coomassie blue staining. Specific Activity of recombinant CDK2/cyclinE was 1336 U/mg, where one unit of CDK2/cylinE1 activity is defined as 1 nmol phosphate incorporated into 0.1 mg/ml histone H1 per minute at 30° C. with a final ATP concentration of 100 μM. Enzyme was stored with concentration of 0.1 mg/ml in 50 mM Tris/HCl pH 7.5, 150 mM NaCl, 0.03% Brij-35, 0.1 mM EGTA, 0.2 mM PMSF, 1 mM benzamidine, 0.1% 2-mercaptoethanol, 270 mM sucrose.

CDK6/cyclinD3 = molecular target: T2, CDK6/cyclinD3 (Homo sapiens, UniProt Q00534); assay: CDK activity assay with p33 ATP, CDK6/cyclinD3; conditions: 1 μM ATP; read-out: CDK6/cyclinD IC50
T2 construct: N-terminal, 6His-tagged full-length human cdk6 (MW=38 kDa); 6His (N); made in house; host or cells: Sf21 cells
T2 sequence (Q00534 whole entry): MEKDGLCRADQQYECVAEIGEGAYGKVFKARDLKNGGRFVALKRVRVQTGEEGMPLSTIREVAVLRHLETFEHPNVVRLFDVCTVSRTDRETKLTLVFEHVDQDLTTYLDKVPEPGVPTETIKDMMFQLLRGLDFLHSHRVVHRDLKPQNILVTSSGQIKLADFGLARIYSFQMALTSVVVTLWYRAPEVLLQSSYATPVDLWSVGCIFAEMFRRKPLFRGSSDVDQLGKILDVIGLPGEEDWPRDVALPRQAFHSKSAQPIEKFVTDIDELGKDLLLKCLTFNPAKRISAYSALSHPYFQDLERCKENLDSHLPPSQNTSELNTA
T2 sequence (P30281 whole entry partner): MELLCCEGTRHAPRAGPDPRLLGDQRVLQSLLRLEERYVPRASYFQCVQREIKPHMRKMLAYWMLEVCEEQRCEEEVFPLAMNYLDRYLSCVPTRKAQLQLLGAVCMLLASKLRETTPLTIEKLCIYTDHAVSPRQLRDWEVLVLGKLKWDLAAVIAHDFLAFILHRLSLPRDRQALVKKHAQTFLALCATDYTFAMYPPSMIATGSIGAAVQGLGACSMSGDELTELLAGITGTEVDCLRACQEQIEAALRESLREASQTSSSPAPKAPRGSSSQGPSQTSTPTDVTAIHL
Description: CDK6/cyclinD3 (Accession Number for CDK6; GenBank X66365, for Cyclin D3; EMBL M90814):
N-terminal, 6His-tagged full-length human cdk6 (MW=38 kDa) complexed with N-terminal GST-tagged full-length human cyclin D3 (MW=59 kDa) were expressed in Sf21 cells. Recombinant protein complex was purified using glutathione-agarose and activated with CAK, and repurified with Ni2+/NTA-agarose column. Purity was measured to be at least 68%. Specific Activity was measured to be 39 U/mg, where one unit of cdk6/cyclinD3 activity is defined as 1 nmol phosphate incorporated into 0.1 mg/ml histone H1 per minute at 30° C. with a final ATP concentration of 100 μM. Enzyme was stored at concentration of 0.1 mg/ml in 50 mM Tris-HCl, pH 7.5, 270 mM sucrose, 150 mM NaCl, 1 mM benzamidine, 0.2 mM PMSF, 0.1% 2-mercaptoethanol, 0.1 mM EGTA, 0.03% Brij 35.

Structure (SMILES) | IC50 (HDAC) [nM] | IC50 (CDK2/cyclinE) [nM] | IC50 (CDK6/cyclinD3) [nM]
CC(C)(C)c1cnc(CSc2cnc(NC(=O)CCCNCCC(=O)NO)s2)o1 [Compound 13, N-(5-((5-tert-butyloxazol-2-yl)methylthio)thiazol-2-yl)-4-(3-(hydroxyamino)-3-oxopropylamino)butanamide] | > 10000 | < 100 | 100 to 1000
CC(C)(C)c1cnc(CSc2cnc(NC(=O)CCCCC(=O)NO)s2)o1 [Compound 6, N^1-(5-((5-tert-butyloxazol-2-yl)methylthio)-thiazol-2-yl)-N^6-hydroxyadipamide] | 100 to 1000 | < 100 | 100 to 1000
CC(C)(C)c1cnc(CSc2cnc(NC(=O)CCCC(=O)NO)s2)o1 [Compound 5, N^1-(5-((5-tert-butyloxazol-2-yl)methylthio)thiazol-2-yl)-N^5-hydroxyglutaramide] | 100 to 1000 | < 100 | 100 to 1000
